20 compounds from US6541463B1, “Inhibitors of type 5 and type 3 17β-hydroxysteroid dehydrogenase and methods for their use” (Endorecherche, Inc., priority 1998, dated 2003) can be followed below.

Read-outs that look alike come from different tables or passages of the source.

The target in this assay is T1, androgen receptor (Rattus norvegicus, UniProt P15207).
T1 construct: from tissue; host or cells: ventral prostate cytosol of gonadectomized male Sprague-Dawley rats
T1 sequence (P15207 1-902): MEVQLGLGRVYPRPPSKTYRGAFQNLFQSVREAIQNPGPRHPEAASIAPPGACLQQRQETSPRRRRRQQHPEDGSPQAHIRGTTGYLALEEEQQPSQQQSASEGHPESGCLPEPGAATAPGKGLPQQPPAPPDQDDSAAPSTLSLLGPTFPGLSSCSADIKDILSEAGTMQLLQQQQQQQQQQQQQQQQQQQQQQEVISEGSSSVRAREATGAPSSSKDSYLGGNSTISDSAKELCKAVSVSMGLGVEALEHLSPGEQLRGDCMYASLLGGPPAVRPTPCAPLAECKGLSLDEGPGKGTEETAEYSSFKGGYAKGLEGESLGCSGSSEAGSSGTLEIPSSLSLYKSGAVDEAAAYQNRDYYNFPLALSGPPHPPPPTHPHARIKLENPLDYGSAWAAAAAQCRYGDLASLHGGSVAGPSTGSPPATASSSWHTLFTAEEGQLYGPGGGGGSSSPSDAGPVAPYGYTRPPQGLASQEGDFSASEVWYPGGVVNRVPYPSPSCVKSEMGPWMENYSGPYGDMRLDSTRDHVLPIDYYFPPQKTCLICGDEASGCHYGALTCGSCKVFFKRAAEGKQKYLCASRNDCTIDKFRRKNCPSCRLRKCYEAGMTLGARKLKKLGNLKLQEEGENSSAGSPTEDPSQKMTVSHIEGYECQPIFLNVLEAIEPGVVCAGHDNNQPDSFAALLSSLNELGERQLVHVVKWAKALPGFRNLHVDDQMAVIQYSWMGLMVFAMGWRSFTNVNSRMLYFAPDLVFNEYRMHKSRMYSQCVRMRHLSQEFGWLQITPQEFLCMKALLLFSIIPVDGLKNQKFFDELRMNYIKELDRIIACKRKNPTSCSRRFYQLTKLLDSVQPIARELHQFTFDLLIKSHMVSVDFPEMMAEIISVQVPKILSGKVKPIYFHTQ
The assay can be described thus: Androgen receptor (AR) assay: inhibition of [3H]R1881 binding, prostate cytosol. The protocol:
The manner in which the percentage of inhibition is determined is described in “Other Tests; D-Androgen Receptor (AR) Assays”. Lower numbers are desirable.
Male Sprague-Dawley rats (Crl: CD(SD)Br) weighing 200-300 g were obtained from Charles-River Inc. (St-Constant, Québec, Canada). The rats were gonadectomized under general anesthesia (Isoflurane) and killed by cervical dislocation 24 hours later. The ventral prostates were rapidly removed, dissected free from adhering tissue and frozen on dry-ice. Prostates were kept at −80° C. until assay.
All subsequent steps were performed at 0-4° C. Prostates were homogenized in 5 vol (wt/vol) of buffer A (25 mM Tris-HCl, 1.5 mM EDTA disodium salt, 10 mM α-monothioglycerol, 10% glycerol, and 10 mM sodium molybdate, pH 7.4), using a Polytron PT-10 homogenizer (Brinkman Instruments, Canada) at a setting of 5 for three periods of 10 sec, with intervals of 10 sec for cooling. The homogenate was then centrifuged at 105,000×g for 60 min in a Beckman L5-65 ultracentrifuge (Fullerton, Calif.).
Androgen binding was measured using the hydroxylapatite assay (HAP). In brief, the radioactive steroid [^3H]R1881 solubilized in ethanol was diluted into buffer A. Aliquots of prostate cytosol preparation (0.1 ml) were then incubated with 8 nM [^3H]R1881 (0.1 ml, ˜200,000 cpm) in the presence or absence of the indicated concentrations of unlabeled compounds (0.1 ml, prepared in buffer A containing 10% ethanol) for 16-18 h at 0-4° C. […] Unbound steroids were separated by incubation for 40 min at 0-4° C. with 0.3 ml HAP prepared in buffer P (50 mM, Tris-HCl, 10 mM KH2PO4, pH 7.4) as follows: 10 g HAP were washed with buffer P until the supernatant reached a pH of 7.4 and then following centrifugation and decantation of the supernatant, 37.5 ml of buffer P were added. After incubation with HAP and 10 minutes of centrifugation at 1,000×g, the pellet was washed 3 times with 1 ml buffer P. Thereafter, the radioactivity was extracted from the pellet by incubation at room temperature for 60 minutes with 1 ml EtOH. After centrifugation, the supernatant was decanted into a scintillation vial and the pellet was extracted again with ethanol.

For `CC(=O)O[C@]1(C)C(=O)CCC2C3C=C(C)C4=CC(=O)C=C[C@]4(C)C3CC[C@@]21C` (stereo partly shown) [CS-237], the inhibition at 1 µM (read-out: % Inhibition Androgen Receptor E^−6) stood at 11%. The inhibition at 0.01 µM (read-out: % Inhibition Androgen Receptor E^−8) turned out to be 0%.

Take `CC1(C)CC[C@@]2(CCC3C4CCc5cc6oncc6cc5C4CC[C@@]32C)OC1=O` (stereo partly drawn) [EM-1407-CS, 1,3,5(10)-estratrien-(2,3-oximino)-17(R)-spiro-2′-(5′,5′-dimethyl-6′-oxo)tetrahydropyran]: for the setting “Table 4′, E^−6”, 1 µM produced 0% inhibition. The same compound displayed an inhibition at 0.01 µM (Table 4′, E^−8) of 0%.

For the setting “Table 4′, E^−6”, `CC1(C)CCC2(CCC3C4CCc5cc(O)c([N+](=O)[O-])cc5C4CCC32C)OC1=O` (stereo not shown) [EM-1125-CS] gave an inhibition at 1 µM of 1%. The compound also displayed an inhibition at 0.01 µM (Table 4′, E^−8) of 2%.

Consider `COCCOc1cc2c(cc1C(=O)O)C1CCC3(C)C(CCC34CCC(C)(C)C(=O)O4)C1CC2` [EM-1405, 2-Carboxy-3-(2″-methoxyethyloxy)-1,3,5(10)-estratrien-17(R)-spiro-2′-(5′,5′-dimethyl-6′-oxo)tetrahydropyran], for which, under “Table 4′, E^−6”, at 1 µM the inhibition was 0%. The compound further had an inhibition at 0.01 µM (Table 4′, E^−8) of 0%.

For the compound `COc1ccc2c(c1)CCC1C2CCC2(C)C1CCC21CCC(C)(C)C(=O)O1` (stereo not shown) [EM-1370], under “Table 4′, E^−6”, the inhibition at 1 µM turned out to be 2%. The inhibition at 0.01 µM (Table 4′, E^−8) stood at 3%.

`COc1c(Br)cc2c(c1Br)CCC1C2CCC2(C)C1CCC21CCC(C)(C)C(=O)O1` (stereo not shown) [EM-1385-CS] returned an inhibition at 1 µM (Table 4′, E^−6) of 0%. Besides, the inhibition at 0.01 µM (Table 4′, E^−8) worked out at 0%.

Regarding `CC(=O)[C@@]1(OC(=O)CCCCF)CCC2C3C=C(C)C4=CC(=O)CC[C@]4(C)C3CC[C@@]21C` (stereo partly shown) [EM-1195-CS], the “% Inhibition Androgen Receptor” value runs as follows: (E^−6) 62%; (E^−8) 1%.

Turning to `COc1ccc(CC(=O)O[C@]2(C(C)=O)CCC3C4C=C(C)C5=CC(=O)C=C[C@]5(C)C4CC[C@@]32C)cc1` (stereo partly shown) [EM-1291], the “% Inhibition Androgen Receptor” value (E^−6) worked out at 0% and the “% Inhibition Androgen Receptor” value (E^−8) turned out to be 0%.

Consider `CCCCN(C)C(=O)[C@@]1(OC(C)=O)CCC2C3C=C(C)C4=CC(=O)CC[C@]4(C)C3CC[C@@]21C` (stereo partly shown) [EM-1165], for which the “% Inhibition Androgen Receptor” value (E^−6) worked out at 1% and the “% Inhibition Androgen Receptor” value (E^−8) came out at 0%.

For the compound `CC1(C)CCC2(CCC3C4CCc5cc(OCCN6CCCCC6)ccc5C4CCC32C)OC1=O` [EM-1390-CS, 3-(N-piperidyl-ethyl)-1,3,5(10)-estratrien-17(R)-spiro-2′-(5′,5′-dimethyl-6′-oxo)-tetrahydropyran], 1 µM produced 0% inhibition (Table 4′, E^−6). For the setting “Table 4′, E^−8”, this compound had an inhibition at 0.01 µM of 0%.

Turning to `COCCOc1cc2c(cc1C(F)(F)F)[C@H]1CC[C@@]3(C)[C@@H](CC[C@@]34CCC(C)(C)C(=O)O4)[C@@H]1CC2` [EM-1438, 3-(2′-Methoxyethoxy)-2-trifluoromethyl-1,3,5(10)-estratrien-17(R)-spiro-2′-(5′,5′-dimethyl-6′-oxo)tetrahydropyran], the “% Inhibition Androgen Receptor E^−6” value (Table 4′, E^−6) was found to be 10%. Besides, the “% Inhibition Androgen Receptor E^−8” value (Table 4′, E^−8) came to 0%.

Where the note is “Table 4′, E^−6”, `COCCOc1ccc2c(c1)C(=O)CC1C2CCC2(C)C1CCC21CCC(C)(C)C(=O)O1` (stereo not shown) [EM-1408-CS] gave an inhibition at 1 µM of 0%. Where the note is “Table 4′, E^−8”, this compound showed an inhibition at 0.01 µM of 0%.

`CCOc1ccc2c(c1)CCC1C2CC[C@@]2(C)C1CC[C@@]21CCC(C)(C)C(=O)O1` (stereo partly drawn) [EM-1369, 3-Ethoxy-1,3,5(10)-estratrien-17(R)-spiro-2′-(5′,5′-dimethyl-6′-oxo)-tetrahydropyran] came in with an inhibition at 1 µM (Table 4′, E^−6) of 1%. This compound also yielded an inhibition at 0.01 µM (Table 4′, E^−8) of 0%.

As to `CC1(C)CCC2(CCC3C4CCc5c(cc(Cl)c(O)c5Cl)C4CCC32C)OC1=O` (stereo not shown) [EM-1391-CS], the inhibition at 1 µM (Table 4′, E^−6) amounted to 0%. For the same compound, for the setting “Table 4′, E^−8”, 0.01 µM produced 0% inhibition.

`COCCOc1cc2c(cc1C#N)C1CC[C@@]3(C)C(CC[C@@]34CCC(C)(C)C(=O)O4)C1CC2` (stereo partly shown) [EM-1396] yielded an inhibition at 1 µM (Table 4′, E^−6) of 2%. At 0.01 µM the inhibition (Table 4′, E^−8) was 0%.

The compound `CSCCOc1ccc2c(c1)CCC1C2CCC2(C)C1CCC21CCCC(=O)O1` [CS-242, 3-Methylthioethyloxy-1,3,5(10)-estratrien-17(R)-spiro-2′-(6′-oxo) Tetrahydropyran] showed an inhibition at 1 µM (Table 4′, E^−6) of 0%. In addition, under “Table 4′, E^−8”, the inhibition at 0.01 µM is 0%.

Compound `CCC[C@]1(F)CC2C3C=CC4=CC(=O)CC[C@]4(C)C3CC[C@]2(C)C1=O` (stereo partly shown) [EM-1183] registered an inhibition at 1 µM (E^−6) of 1%. Besides, the inhibition at 0.01 µM (E^−8) was 0%.

Turning to `CC1CCC2(CCC3C4CCc5cc(O)c([N+](=O)[O-])cc5C4CCC32C)OC1=O` [EM-1131, 2-Nitro-1,3,5(10)-estratrien-3-ol-17(R)-spiro-2′-(5′-methyl-6′-oxo)tetrahydropyran], the “% Inhibition Androgen Receptor E^−6” value (Table 4′, E^−6) was 1%. The inhibition at 0.01 µM (Table 4′, E^−8) turned out to be 2%.

Turning to `COc1ccc2c(c1)C(=O)CC1C3CCC4(CCC(C)(C)C(=O)O4)C3(C)CCC21O` (stereo not shown) [EM-1386], where the note is “Table 4′, E^−6”, at 1 µM the inhibition was 0%. Where the note is “Table 4′, E^−8”, this compound displayed an inhibition at 0.01 µM of 0%.

With `CC1(C)CCC2(CCC3C4CCc5ccccc5C4CCC32C)OC1=O` (stereo not shown) [CS-224], the inhibition at 1 µM (Table 4′, E^−6) was 0%. Besides, at 0.01 µM the inhibition (Table 4′, E^−8) was 0%.
